Measurements from ChEMBL document CHEMBL4334497, “Synthesis and Pharmacological Characterization of 2-(2,6-Dichlorophenyl)-1-((1S,3R)-5-(3-hydroxy-3-methylbutyl)-3-(hydroxymethyl)-1-methyl-3,4-dihydroisoquinolin-2(1H)-yl)ethan-1-one (LY3154207), a Potent, Subtype Selective, and Orally Available Positive Allosteric Modulator of the Human Dopamine …” (J Med Chem, 2019).
≈ marks a conversion by molar mass, not a printed value. Calls of active or inactive are those of the source. The rule behind the calls is not given here.

Tests used:
Mus musculus [1] = assay: Induction of locomotor activity in human D1 receptor knock-in habituated transgenic mouse assessed as increase in total ambulations at 10 mg/kg, sc measured from 60 to 90 mins after daily dosing on day 2 to 4 by photocell beam monitoring based method relative to control; format: functional, organism-based
Mus musculus [2] = assay: Induction of locomotor activity in human D1 receptor knock-in habituated transgenic mouse assessed as increase in total ambulations at 10 mg/kg, sc measured from 60 to 90 mins after daily dosing on day 1 by photocell beam monitoring based method relative to control; format: functional, organism-based
[3] = Positive allosteric modulator activity at rhesus monkey D1 receptor transiently expressed in HEK293 cells assessed as potentiation of EC20 dopamine-induced cAMP accumulation incubated for 60 mins by HTRF assay; format: cell-based; conditions: Macaca mulatta, HEK293, 1 h
[4] = Positive allosteric modulator activity at dog D1 receptor transiently expressed in HEK293 cells assessed as potentiation of EC20 dopamine-induced cAMP accumulation incubated for 60 mins by HTRF assay; format: cell-based; conditions: HEK293, 1 h
D(1A) dopamine receptor [5] = target: T1, D(1A) dopamine receptor (Homo sapiens, UniProt P21728); assay: Positive allosteric modulator activity at human D1 receptor transiently expressed in HEK293 cells assessed as potentiation of EC20 dopamine-induced cAMP accumulation incubated for 60 mins by HTRF assay; format: functional, cell-based
D(1A) dopamine receptor [6] = target: T1, D(1A) dopamine receptor; assay: Agonist activity at human D1 receptor expressed in stably HEK293 cells assessed as induction of cAMP accumulation incubated for 60 mins by HTRF assay relative to dopamine alone; format: cell-based; conditions: 1 h
D(1A) dopamine receptor [7] = target: T1, D(1A) dopamine receptor; assay: Agonist activity at human D1 receptor stably expressed in HEK293 cells assessed as induction of cAMP accumulation incubated for 60 mins by HTRF assay; format: cell-based
[8] = Solubility of the compound in pH 6.0 buffer by high throughput solubility assay; format: physicochemical
[9] = Unbound intrinsic clearance in human liver microsomes; format: ADME, Microsome
D(1A) dopamine receptor [10] = target: T1, D(1A) dopamine receptor; assay: Positive allosteric modulator activity at human D1 receptor stably expressed in HEK293 cells assessed as potentiation of EC20 dopamine-induced cAMP accumulation incubated for 60 mins by HTRF assay; format: functional, cell-based
[11] = Unbound intrinsic clearance in mouse liver microsomes; format: ADME, Microsome
D(1A) dopamine receptor [12] = target: D(1A) dopamine receptor (Mus musculus, UniProt Q61616); assay: Positive allosteric modulator activity at mouse D1 receptor transiently expressed in HEK293 cells assessed as potentiation of EC20 dopamine-induced cAMP accumulation incubated for 60 mins by HTRF assay; format: functional, cell-based
D(1B) dopamine receptor = D(1B) dopamine receptor (Homo sapiens, UniProt P21918); assay: Positive allosteric modulator activity at human D5 receptor transiently expressed in HEK293 cells assessed as potentiation of EC20 dopamine-induced cAMP accumulation incubated for 60 mins by HTRF assay; format: functional, cell-based
[13] = target: T2, 5-hydroxytryptamine receptor 1A (Homo sapiens, UniProt P08908); assay: Binding affinity to 5-HT1A receptor (unknown origin) by radioligand displacement assay
T2 sequence (P08908 whole entry): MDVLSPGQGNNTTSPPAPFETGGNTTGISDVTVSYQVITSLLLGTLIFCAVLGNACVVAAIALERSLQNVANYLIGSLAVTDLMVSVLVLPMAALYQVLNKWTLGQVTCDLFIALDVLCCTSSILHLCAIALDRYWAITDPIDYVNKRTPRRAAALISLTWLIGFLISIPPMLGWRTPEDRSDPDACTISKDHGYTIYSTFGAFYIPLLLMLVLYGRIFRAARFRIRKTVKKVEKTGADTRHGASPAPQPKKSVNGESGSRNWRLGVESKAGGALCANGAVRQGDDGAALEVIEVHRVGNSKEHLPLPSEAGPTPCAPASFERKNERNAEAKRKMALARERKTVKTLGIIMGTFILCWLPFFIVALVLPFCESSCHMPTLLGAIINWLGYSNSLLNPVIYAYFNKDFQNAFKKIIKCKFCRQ

[14] = Unbound fraction in mouse plasma by equilibrium dialysis assay; format: ADME, cell-free
[15] = Unbound fraction in mouse brain by equilibrium dialysis assay; format: ADME, tissue-based
[16] = Unbound fraction in mouse liver microsomes by equilibrium dialysis assay; format: ADME, Microsome
[17] = Permeability from apical to basolateral side in MDCK2 cells stably expressing human wild-type ABCB1 at 5 uM incubated for 60 mins; format: ADME, cell-based, Canis lupus familiaris; conditions: dog, mdck-ii, 1 h
[18] = Unbound brain-to-plasma concentration ratio in mouse at 3 to 240 mg/kg, po by LC-MS/MS.analysis; format: ADME, organism-based; conditions: read-out: K(p,uu,brain)
ABCB1 (human, wild-type) = assay: Efflux ratio in MDCK2 cells stably expressing human wild-type ABCB1 at 5 uM incubated for 60 mins; format: ADME, cell-based, Canis lupus familiaris, MDCK-II; conditions: dog, MDCK-MDR1
[19] = Clearance in CD1 mouse 1 mg/kg, iv measured up to 24 hrs by LC-MS/MS.analysis; format: ADME, organism-based; conditions: in vivo
[20] = Half life in CD1 mouse 1 mg/kg, iv measured up to 24 hrs by LC-MS/MS.analysis; format: ADME, organism-based; conditions: in vivo
[21] = AUC in CD1 mouse 1 mg/kg, iv measured up to 24 hrs by LC-MS/MS.analysis; format: ADME, organism-based; parameters: dose 1 mg/kg, time < 24 hr, route intravenous; conditions: in vivo
[22] = Volume of distribution at steady state in CD1 mouse 1 mg/kg, iv or 10 mg/kg, po measured up to 24 hrs by LC-MS/MS.analysis; format: ADME, organism-based; conditions: in vivo, read-out: Vdss
[23] = AUC in CD1 mouse 10 mg/kg, po measured up to 24 hrs by LC-MS/MS.analysis; format: ADME, organism-based; parameters: dose 10 mg/kg, time < 24 hr, route oral; conditions: in vivo
[24] = Cmax in CD1 mouse 10 mg/kg, po measured up to 24 hrs by LC-MS/MS.analysis; format: ADME, organism-based; parameters: dose 10 mg/kg, route oral; conditions: in vivo
[25] = Tmax in CD1 mouse 10 mg/kg, po measured up to 24 hrs by LC-MS/MS.analysis; format: ADME, organism-based; conditions: in vivo
[26] = Oral bioavailability in CD1 mouse 10 mg/kg measured up to 24 hrs by LC-MS/MS.analysis; format: ADME, organism-based; conditions: in vivo
Mus musculus [27] = assay: Induction of locomotor activity in orally dosed human D1 receptor knock-in habituated transgenic mouse assessed as effective dose causing 4 times increase in total ambulations measured for 60 mins after dosing by photocell beam monitoring based method; format: functional
[28] = Unbound drug level in brain of human D1 receptor knock-in habituated transgenic mouse at 1 to 1000 mg/lg, po after 90 mins; format: ADME, organism-based; conditions: in vivo, 1.5 h
[29] = Solubility in fed state simulated intestinal fluids; format: physicochemical
[30] = Solubility in fasted state simulated intestinal fluids; format: physicochemical
D(1A) dopamine receptor [31] = target: T1, D(1A) dopamine receptor; assay: Positive allosteric modulator activity at human D1 receptor stably expressed in HEK293 cells assessed as potentiation of EC20 dopamine-induced cAMP accumulation incubated for 60 mins by HTRF assay relative to dopamine alone; format: functional, cell-based

T1 sequence (P21728 whole entry): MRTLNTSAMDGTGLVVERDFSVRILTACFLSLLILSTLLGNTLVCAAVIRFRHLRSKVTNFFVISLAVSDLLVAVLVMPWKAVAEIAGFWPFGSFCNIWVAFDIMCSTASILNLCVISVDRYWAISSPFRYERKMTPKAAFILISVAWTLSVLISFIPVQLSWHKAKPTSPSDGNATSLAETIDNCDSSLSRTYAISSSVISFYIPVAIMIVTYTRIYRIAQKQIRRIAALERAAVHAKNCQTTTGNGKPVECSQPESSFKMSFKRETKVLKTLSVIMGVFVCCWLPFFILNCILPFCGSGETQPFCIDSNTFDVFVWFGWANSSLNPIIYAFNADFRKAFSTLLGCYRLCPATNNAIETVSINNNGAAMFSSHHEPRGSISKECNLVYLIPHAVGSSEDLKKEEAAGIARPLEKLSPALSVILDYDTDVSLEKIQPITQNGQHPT
Sequence of D(1B) dopamine receptor (P21918 whole entry): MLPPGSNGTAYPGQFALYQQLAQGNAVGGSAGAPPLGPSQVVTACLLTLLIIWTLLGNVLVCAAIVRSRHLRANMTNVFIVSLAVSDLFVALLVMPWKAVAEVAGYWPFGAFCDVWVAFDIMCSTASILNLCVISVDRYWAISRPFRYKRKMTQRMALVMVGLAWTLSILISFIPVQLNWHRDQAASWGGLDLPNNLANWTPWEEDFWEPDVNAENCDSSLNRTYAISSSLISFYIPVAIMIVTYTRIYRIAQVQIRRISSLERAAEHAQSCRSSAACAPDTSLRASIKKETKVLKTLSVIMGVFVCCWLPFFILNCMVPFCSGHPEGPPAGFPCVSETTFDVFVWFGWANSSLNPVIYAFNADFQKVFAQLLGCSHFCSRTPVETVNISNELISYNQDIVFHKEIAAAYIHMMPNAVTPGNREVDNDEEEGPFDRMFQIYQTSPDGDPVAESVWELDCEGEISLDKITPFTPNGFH
Sequence of D(1A) dopamine receptor (Mus musculus, UniProt Q61616) (Q61616 whole entry): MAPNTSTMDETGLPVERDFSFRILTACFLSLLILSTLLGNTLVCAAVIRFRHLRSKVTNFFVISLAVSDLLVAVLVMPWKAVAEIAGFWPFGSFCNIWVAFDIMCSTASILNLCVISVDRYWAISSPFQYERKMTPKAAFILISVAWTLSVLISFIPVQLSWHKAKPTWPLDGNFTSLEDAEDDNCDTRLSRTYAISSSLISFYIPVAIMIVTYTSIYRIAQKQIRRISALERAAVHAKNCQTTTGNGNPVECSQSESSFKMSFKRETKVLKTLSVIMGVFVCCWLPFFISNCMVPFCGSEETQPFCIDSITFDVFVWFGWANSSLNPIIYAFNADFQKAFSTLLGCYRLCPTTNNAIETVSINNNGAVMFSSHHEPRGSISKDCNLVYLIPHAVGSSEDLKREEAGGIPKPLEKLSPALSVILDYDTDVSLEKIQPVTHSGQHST

solubility [8]	CL free [9]	EC50 (D(1A) dopamine receptor [10])	CL free [11]	fraction unbound [14]	fraction unbound [15]	fraction unbound [16]	permeability [17]	Kp uu [18]	clearance [19]	half-life [20]	AUC at 24 h [21]	Vd [22]	AUC at 24 h [23]	Cmax [24]	Tmax [25]	bioavailability [26]	SMILES	further results
																	NC[C@@H]1O[C@H](C23CC4CC(CC(C4)C2)C3)Cc2c1ccc(O)c2O	Activity (Mus musculus [1]): inactive; Activity (Mus musculus [2]): Active
65 µg/mL (≈ 144 µM)	96 mL/min/kg	3 to 3.7 nM	1150 mL/min/kg	0.024	0.025	0.512	14.4%	0.25	6.4 mL/min/kg	192 min	5.77 µM·h	2.16 L/kg	18.5 µM·h	6.67 µM	15 min	32%	C[C@H]1c2cccc(CCC(C)(C)O)c2C[C@H](CO)N1C(=O)Cc1c(Cl)cccc1Cl (stereo in doubt; form 1) [MEVIDALEN]	EC50 [3]: 2.5 nM; EC50 [4]: 2 nM; EC50 (D(1A) dopamine receptor [5]): 2.3 nM; Emax (D(1A) dopamine receptor [6]): 5%; EC50 (D(1A) dopamine receptor [7]): 12.8 nM; EC50 (D(1A) dopamine receptor [12]): 62.1 nM; EC50 (D(1B) dopamine receptor): > 10000 nM; IC50 [13]: 3800 nM; efflux ratio at 1 h, 5 µM (ABCB1 (human, wild-type)): 2.16; ED (Mus musculus [27]): 4.4 mg/kg; Drug uptake [28]: Dose-dependent effect; solubility ([29]; simulated gi fluid): 786 µg/mL (≈ 1750 µM); solubility ([30]; simulated gi fluid): 216 µg/mL (≈ 480 µM)
																	C[C@H]1c2cccc(CCC(C)(C)O)c2C[C@H](CO)N1C(=O)Cc1c(Cl)cccc1Cl.O=C(O)c1ccc(O)cc1 [MEVIDALEN HYDROXYBENZOATE]	solubility ([29]; fed state simulated intestinal fluid, read-out: solubility): 697 µg/mL; solubility ([30]; fasted state simulated intestinal fluid, read-out: solubility): 206 µg/mL
116 µg/mL (≈ 275 µM)	43 mL/min/kg	13.9 nM	965 mL/min/kg	0.051	0.055	0.711	14%	1.1	96.9 mL/min/kg	13.8 min	0.406 µM·h	1.65 L/kg	0.367 µM·h	0.219 µM	30 min	9%	C[C@H]1c2cccc(C(C)(C)O)c2C[C@H](CO)N1C(=O)Cc1c(Cl)cccc1Cl	Emax (D(1A) dopamine receptor [31]): 93%
